Earlier results in US20240057588A1, “HERBICIDAL FORMULATION IN THE FORM OF MICROEMULSION” (RED SURCOS COLOMBIA LTDA, priority 2018, published 2024).

Assays:
[1] = qualitative

| Compound | Solubility in organic solvents / other media [1] | Solubility in water |
| --- | --- | --- |
| O=C1CCCCC1 [Cyclohexanone] | soluble in most organic solvents | slightly soluble |
| CN1CCCC1=O [N-Methylpyrrolidone] | Miscible | miscible |
| O=C(O)CNCP(=O)(O)O [glyphosate, reference compound] | – | very low |
